# In ChEMBL document CHEMBL3885861, “Open TG-GATES”:
# Organism: Rattus norvegicus
# Experiment: Open TG-GATES - Regimen: Single
# Format: toxicity, organism-based, Sprague-Dawley
# Parameters: regimen Single, gender Male, age 6 weeks
# Details: in vivo, po, 100 mg/kg, route gavage, dose level Middle; for APTT / Bas / Eos / Fbg / Hb / Ht / Lym / MCH / MCHC / MCV / Mono / Neu / PT / Plat / RBC / Ret / WBC: tissue Blood; for KIDNEY_L / KIDNEY_R / KIDNEY_TOTAL: tissue Kidney; for LIVER: tissue Liver; for A/G / ALP / ALT / AST / BUN / CRE / Ca / Cl / DBIL / GLC / IP / K / LDH / Na / PL / RALB / TBIL / TC / TG / TP / gamma-GTP: tissue Plasma
smiles,measurement,setting,value
Nc1ccc(Cc2ccc(N)cc2)cc1,TERMINAL_BW,3 h,212.4 g
same,APTT,3 h,14.4 s
same,Bas,3 h,0%
same,Eos,3 h,0.6%
same,Fbg,3 h,268.8 mg/dL
same,Hb,3 h,13 g/dL
same,Ht,3 h,38%
same,Lym,3 h,75.8%
same,MCH,3 h,21 pg
same,MCHC,3 h,34.2%
same,MCV,3 h,61.4 fL
same,Mono,3 h,3.8%
same,Neu,3 h,19.4%
same,PT,3 h,11.7 s
same,Plat,3 h,154.4 x10_4/uL
same,RBC,3 h,618.6 x10_4/ul
same,Ret,3 h,8.7%
same,WBC,3 h,83.6 x10_2/uL
same,KIDNEY_L,3 h,0.8 g
same,KIDNEY_R,3 h,0.9 g
same,KIDNEY_TOTAL,3 h,1.7 g
same,LIVER,3 h,9.1 g
same,A/G,3 h,0.8
same,ALP,3 h,1470.6 IU/L
same,ALT,3 h,45.6 IU/L
same,AST,3 h,82.8 IU/L
same,BUN,3 h,11 mg/dL
same,CRE,3 h,0.2 mg/dL
same,Ca,3 h,10.9 mg/dL
same,Cl,3 h,104 meq/L
same,DBIL,3 h,0.028 mg/dL
same,GLC,3 h,173.6 mg/dL
same,IP,3 h,9.4 mg/dL
same,K,3 h,4 meq/L
same,LDH,3 h,64.4 IU/L
same,Na,3 h,140.2 meq/L
same,PL,3 h,155.6 mg/dL
same,RALB,3 h,2.5 g/dL
same,TBIL,3 h,0.074 mg/dL
same,TC,3 h,86.4 mg/dL
same,TG,3 h,73 mg/dL
same,TP,3 h,5.6 g/dL
same,gamma-GTP,3 h,1.2 IU/L
same,TERMINAL_BW,6 h,206.8 g
same,APTT,6 h,14.6 s
same,Bas,6 h,0%
same,Eos,6 h,0.6%
same,Fbg,6 h,278 mg/dL
same,Hb,6 h,13.4 g/dL
same,Ht,6 h,39.2%
same,Lym,6 h,62.4%
same,MCH,6 h,21.2 pg
same,MCHC,6 h,34.1%
same,MCV,6 h,62.3 fL
same,Mono,6 h,3.6%
same,Neu,6 h,32.2%
same,PT,6 h,11.8 s
same,Plat,6 h,144.9 x10_4/uL
same,RBC,6 h,630.2 x10_4/ul
same,Ret,6 h,8.2%
same,WBC,6 h,104 x10_2/uL
same,KIDNEY_L,6 h,0.9 g
same,KIDNEY_R,6 h,0.9 g
same,KIDNEY_TOTAL,6 h,1.9 g
same,LIVER,6 h,9.3 g
same,A/G,6 h,0.8
same,ALP,6 h,1520.8 IU/L
same,ALT,6 h,42.8 IU/L
same,AST,6 h,94.8 IU/L
same,BUN,6 h,8.8 mg/dL
same,CRE,6 h,0.2 mg/dL
same,Ca,6 h,10.5 mg/dL
same,Cl,6 h,104.6 meq/L
same,DBIL,6 h,0.1 mg/dL
same,GLC,6 h,176.2 mg/dL
same,IP,6 h,9.5 mg/dL
same,K,6 h,4 meq/L
same,LDH,6 h,90 IU/L
same,Na,6 h,140.2 meq/L
same,PL,6 h,152.4 mg/dL
same,RALB,6 h,2.5 g/dL
same,TBIL,6 h,0.2 mg/dL
same,TC,6 h,79 mg/dL
same,TG,6 h,53.2 mg/dL
same,TP,6 h,5.6 g/dL
same,gamma-GTP,6 h,2.6 IU/L
same,TERMINAL_BW,9 h,205.5 g
same,APTT,9 h,14.8 s
same,Bas,9 h,0%
same,Eos,9 h,0.8%
same,Fbg,9 h,285.4 mg/dL
same,Hb,9 h,13 g/dL
same,Ht,9 h,37.8%
same,Lym,9 h,68.6%
same,MCH,9 h,21.2 pg
same,MCHC,9 h,34.2%
same,MCV,9 h,61.9 fL
same,Mono,9 h,2.8%
same,Neu,9 h,27.6%
same,PT,9 h,12.1 s
same,Plat,9 h,139.1 x10_4/uL
same,RBC,9 h,610.8 x10_4/ul
same,Ret,9 h,7.8%
same,WBC,9 h,72.9 x10_2/uL
same,KIDNEY_L,9 h,0.9 g
same,KIDNEY_R,9 h,0.9 g
same,KIDNEY_TOTAL,9 h,1.8 g
same,LIVER,9 h,8 g
same,A/G,9 h,0.8
same,ALP,9 h,1218.8 IU/L
same,ALT,9 h,43.8 IU/L
same,AST,9 h,105 IU/L
same,BUN,9 h,8.2 mg/dL
same,CRE,9 h,0.2 mg/dL
same,Ca,9 h,10.2 mg/dL
same,Cl,9 h,106.2 meq/L
same,DBIL,9 h,0.2 mg/dL
same,GLC,9 h,167.6 mg/dL
same,IP,9 h,9.4 mg/dL
same,K,9 h,4.5 meq/L
same,LDH,9 h,99 IU/L
same,Na,9 h,142.4 meq/L
same,PL,9 h,166.2 mg/dL
same,RALB,9 h,2.4 g/dL
same,TBIL,9 h,0.3 mg/dL
same,TC,9 h,86.8 mg/dL
same,TG,9 h,39.8 mg/dL
same,TP,9 h,5.3 g/dL
same,gamma-GTP,9 h,3.4 IU/L
same,TERMINAL_BW,24 h,195.3 g
same,APTT,24 h,16.4 s
same,Bas,24 h,0%
same,Eos,24 h,0.4%
same,Fbg,24 h,474.8 mg/dL
same,Hb,24 h,12.6 g/dL
same,Ht,24 h,35.7%
same,Lym,24 h,62.4%
same,MCH,24 h,21.5 pg
same,MCHC,24 h,35.4%
same,MCV,24 h,60.6 fL
same,Mono,24 h,5%
same,Neu,24 h,31%
same,PT,24 h,11.5 s
same,Plat,24 h,149.3 x10_4/uL
same,RBC,24 h,589 x10_4/ul
same,Ret,24 h,6.7%
same,WBC,24 h,118.7 x10_2/uL
same,KIDNEY_L,24 h,0.9 g
same,KIDNEY_R,24 h,0.9 g
same,KIDNEY_TOTAL,24 h,1.8 g
same,LIVER,24 h,7.8 g
same,A/G,24 h,0.8
same,ALP,24 h,3282.4 IU/L
same,ALT,24 h,252.8 IU/L
same,AST,24 h,532.6 IU/L
same,BUN,24 h,11.2 mg/dL
same,CRE,24 h,0.2 mg/dL
same,Ca,24 h,11.1 mg/dL
same,Cl,24 h,102.2 meq/L
same,DBIL,24 h,2.3 mg/dL
same,GLC,24 h,136.2 mg/dL
same,IP,24 h,9.6 mg/dL
same,K,24 h,3.8 meq/L
same,LDH,24 h,332.8 IU/L
same,Na,24 h,143.8 meq/L
same,PL,24 h,302.6 mg/dL
same,RALB,24 h,2.4 g/dL
same,TBIL,24 h,3.1 mg/dL
same,TC,24 h,135.2 mg/dL
same,TG,24 h,63.4 mg/dL
same,TP,24 h,5.6 g/dL
same,gamma-GTP,24 h,8.6 IU/L
